Source: patent US20140364454A1, “METAL-CHELATING COMPOUNDS HAVING AT LEAST ONE POLYAMINO CHAIN” (UNIVERSITE DE RENNES I, priority 2011, published 2014)

System: not listed separately
Assay: Potentiometry: stability constants and pFe3+ of the iron complex
Format: physicochemical
Details: pH 7.4
Procedure: The complexation affinity of Quilamine with the metal ion in the organism reflects the chelating capacity or chelating power of Quilamine. This affinity can be assessed by measuring the value of pW corresponding to −log of the concentration in free metal ion W, i.e. non-complexated by the Quilamine for a ratio of respective concentrations of Quilamine (10 micromoles per liter) and metal ion (1 micromole per liter) equal to 10, at 25° C. and pH 7.4. The higher the value of pW, the greater the affinity of Quilamine with metal ion. The affinity of Quilamine with iron in its ferric form (Fe(III)) and its ferrous form (Fe(II)) is measured respectively by pFe^3+ and pFe^2+ at physiological pH (pH=7.4), at 25° C.
Potentiometry measurements were made in thermostated titration cells at 25±0.1° C., using a Metrohm 702 SM Titrino titrator connected to a Metrohm 6.0233.100. The ligand solution is prepared in a concentration of ˜1.5×10^−3 moles per liter, the solution of Fe^3+ is made from FeCl3 and titrated by complexation with a standard solution of EDTA (ethylenediaminetetracetic acid). The sample for the measurement contained approximately 0.03 millimoles per liter of ligand in a volume of 30 ml where the ionic strength is maintained at 0.1 mole per liter in using KNO3 as a support electrolyte. During the titrations, Fe^3+ is added to 0.45 or 0.9 equivalents of ligand. Each titration consists of 150-200 equilibrium points with pH varying from 2.0 to 11.5, and is repeated at least twice. The thermodynamic constants are computed with the software […] and the speciation diagram of the species is done by the Hyss program.

In the case of `O=C(NCCN(CCNC(=O)c1cc(S(=O)(=O)O)c2cccnc2c1O)CCNC(=O)c1cc(S(=O)(=O)O)c2cccnc2c1O)c1cc(S(=O)(=O)O)c2cccnc2c1O` [o-Trensox, reference compound], the “pFe3+” value is reported as 29.5.

System: Caco-2 cells
Assay: Cell viability of proliferating Caco-2 cells (number of nuclei)
Format: cell-based, human
Details: Caco-2 J4, cytostatic constituent, no exogenous iron; read-out: Constituent 1 (1-10 μM) IC50
Procedure: (§1) The action of Quilamines on the cell viability was analyzed on enterocyte cells of the Caco-2 tumor cell line derived from human colon carcinoma and compared with the action of ICL670 in the presence or absence of exogenous iron, after activation (DFMO) or competitive inhibition by spermidine, of the PTS. The operating conditions used are identical to those used for CHO/CHO-MG and HepG2 cells.
The results for the measurement of the anti-proliferative effect of Quilamines, and of ICL670 on the proliferating cells (cytostatic constituent) when there is no exogenous iron have been listed in the table 4 below.

Point of comparison: `NCCCNCCCCNCc1ccc2cccc(O)c2n1` [HQ1-43], IC50 1 µM. Against it:
- NCCCNCCCNCc1ccc2cccc(O)c2n1 [HQ1-33] — within 1.5-fold, 0.8 µM
- NCCCCNCCCNCc1ccc2cccc(O)c2n1 [HQ1-34] — the same, 1 µM

Same assay, conditions: Caco-2 J4, cytotoxic constituent, no exogenous iron; read-out: Constituent 2 (10-100 μM) IC50

Point of comparison: `NCCCNCCCCNCc1ccc2cccc(O)c2n1` [HQ1-43], IC50 30 µM. Against it:
- NCCCNCCCNCc1ccc2cccc(O)c2n1 [HQ1-33] — within 1.5-fold, 37 µM
- NCCCCNCCCNCc1ccc2cccc(O)c2n1 [HQ1-34] — 1.5-fold higher, 45 µM

Same assay, conditions: Caco-2 J4, no exogenous iron

Point of comparison: `NCCCNCCCNCc1ccc2cccc(O)c2n1` [HQ1-33], “Constituent 1 (1-10 μM) % cell” value 40%. Against it:
- NCCCCNCCCNCc1ccc2cccc(O)c2n1 [HQ1-34] — lower, 20%
- NCCCNCCCCNCc1ccc2cccc(O)c2n1 [HQ1-43] — lower, 7%

Point of comparison: `NCCCNCCCCNCc1ccc2cccc(O)c2n1` [HQ1-43], “Constituent 2 (10-100 μM) % cell” value 93%. Against it:
- NCCCNCCCNCc1ccc2cccc(O)c2n1 [HQ1-33] — lower, 60%
- NCCCCNCCCNCc1ccc2cccc(O)c2n1 [HQ1-34] — lower, 80%

System: not listed separately
Assay: Calcein test: shift of iron(III) complexated with calcein
Format: physicochemical
Details: pH 7.4
Procedure: The Quilamines HQ1-34, HQ1-344, HQ1-343, HQ1-33, HQ1-333, HQ1-44, HQ1-43, HQ1-444, HQ1-443 according to the invention were synthesized and tested. For each Quilamine, its capacity to shift iron (III) complexated with calcein was tested. Calcein is a fluorescent molecule which has a pFe3+ value of 20.3 with pH 7.4 close to the value measured for ligands of low molecular weight present in human or animal cells and complexating the labile iron pool, such as citrate which has a pFe^3+ value of 19.3 with pH of 7.4 (LIP). The fluorescence of calcein is detected on a microplate, in a concentration of 0.1 micromole per liter, in solution in a HEPES buffer (4-(2-hydroxyethyl)-1-piperazine ethane sulfonic acid) with pH 7.4, in a Fusion (Packard) type a microplate fluorescence reader, under excitation at 450 nanometers and analysis of the fluorescence emission at 515 nanometers. The fluorescence of calcein is extinguished in the presence of iron(III) in the form of hydrochloride (chloride) with a concentration of 1 micromole per liter. The addition of Quilamine in different concentrations ranging from 0.01 to 40 micromoles per liter prompts the shifting of iron(III) complexated with calcein towards Quilamine, resulting in a restoration of the fluorescence of the calcein. The dose-effect curves expressing the percentage of restoration of fluorescence of calcein (relative to the fluorescence of the free molecule in the absence of iron), for each Quilamine concentration, makes it possible to deduce the Quilamine concentration prompting the 50% shift of Fe(III) from calcein and the restoration of its associated fluorescence (CE50). These concentration values CE50 are inversely proportional to the chelating capacity of the chelators and the aptitude to mobilize iron from the LIP of the organism.
Comparatively, measurements were made, under the same conditions, of the efficacy in shifting iron(III) complexated with calcein of the two prior-art chelators, 8-hydroxyquinoline and O-trensox, the latter being currently considered to be the chelator having the greatest affinity for iron.

For `NCCCNCCCNCc1ccc2cccc(O)c2n1` [HQ1-33], the “chelating capacity of HQ1-3 type compared with HQ1-4 type Quilamines” value was “better chelating capacity”.
With `NCCCCNCCCNCc1ccc2cccc(O)c2n1` [HQ1-34] the “chelating capacity of HQ1-3 type compared with HQ1-4 type Quilamines” value was “better chelating capacity”.

System: mutant cell line CHO-MG without PTS
Assay: Anti-proliferative effect on CHO-MG cells without PTS, counting of cell nuclei
Format: cell-based, hamster
Details: 72 h treatment
Description: The IC50 inhibitor concentration corresponding to the concentration in Quilamines enables the inhibition at 50% of the cell proliferation was deduced from the dose-effect curves of numeration of the nuclei of the living cells on the CHO and CHO-MG cell lines. These dose-effect curves are sometimes bi-phase curves as in the case of Quilamine HQ1-44 which has an anti-proliferative constituent (without concomitant release of LDH in supernatant) in the range of concentrations of 0.4 to 3 micromoles per liter and a second cytotoxic constituent accompanied by membrane toxicity expressed by the release of LDH for concentrations of over […]. The lower the value of IC50, the greater the efficiency of the anti-proliferative effect of the tested chelators.
Furthermore, the ratio of the IC50 inhibitor concentrations found for the CHO-MG and the CHO cell lines (Ratio IC50 (CHO-MG/CHO)) was computed for several Quilamines according to the invention. This ratio makes it possible to estimate the selectivity of recognition of the different chelators by the PTS: the higher the ratio, the more clearly is the chelator recognized by the PTS. When this ratio is close to 1, the tested chelator is not recognized or is little recognized by the PTS.

`NCCCNCCCNCc1ccc2cccc(O)c2n1` [HQ1-33] gave an IC50 of 118 µM.

Same assay, conditions: selectivity of recognition by the PTS

With `NCCCNCCCNCc1ccc2cccc(O)c2n1` [HQ1-33] the “Ratio IC50 (CHO-MG/CHO)” value was 21.

System: HepG2 cells
Assay: Anti-proliferative effect on HepG2 cells (nuclei count or SDH activity)
Format: cell-based, human
Details: HepG2, absence of exogenous iron, 72 h; read-out: IC50 associated with the cytostatic effect
Description: The majority of the Quilamines, like ICL670, show biphase dose-effect curves in the absence of exogenous iron, with an anti-proliferative constituent for concentration values of 1 to 10 micromoles per liter and a cytotoxic constituent associated with a release of LDH for concentration values of over 10 micromoles per liter. The percentage of HepG2 cells concerned by the anti-proliferative effect and the values of IC50 associated with this cytostatic effect in the absence of exogenous iron were listed in the table 4 below.
The implication of PTS in the cytostatic and cytotoxic action of Quilamines was analyzed in proliferating HepG2 hepatocyte tumor cells after activation of PTS or competitive inhibition of PTS by spermidine, a polyamine naturally present in the organism and most efficaciously captured by the PTS. The conditions of treatment by Quilamines are identical to those described in paragraph III-1.
Inhibiting ornithine decarboxylase (ODC), the key enzyme in the biosynthesis of polyamines, causes a depletion of intra-cell polyamines and an activation of PTS which enables the deficiency to be met. This activation of PTS is done by means of the ODC inhibitor, alpha-difluoromethyl ornithine (DFMO).
The competitive inhibition of PTS by spermidine is prompted by the co-treatment of the cells by the Quilamines in the presence of spermidine, in a concentration of 50 micromoles per liter.

Point of comparison: `NCCCCNCCCNCc1ccc2cccc(O)c2n1` [HQ1-34], IC50 1.75 µM. Against it:
- NCCCNCCCNCc1ccc2cccc(O)c2n1 [HQ1-33] — within 1.5-fold, 1.5 µM
- NCCCNCCCCNCc1ccc2cccc(O)c2n1 [HQ1-43] — the same, 1.75 µM

Same assay, conditions: absence of exogenous iron, 72 h

Point of comparison: `NCCCCNCCCNCc1ccc2cccc(O)c2n1` [HQ1-34], “% of HepG2 cells concerned by the anti-proliferative effect” value 5%. Against it:
- NCCCNCCCNCc1ccc2cccc(O)c2n1 [HQ1-33] — higher, 10%
- NCCCNCCCCNCc1ccc2cccc(O)c2n1 [HQ1-43] — higher, 10%

System: Caco-2 cells
Assay: LDH release of Caco-2 cells
Format: cell-based, human
Details: Caco-2 J4, 10 μM
Procedure: as §1
As in the case of the other cell lines in proliferative phase presented here above, the dose-effect curves of the action of the Quilamines on the number of viable cells (number of nuclei) are biphase curves with a cytostatic constituent for concentration values of below 30 micromoles per liter and a cytotoxic constituent with release of LDH for concentration values above 30 micromoles per liter. Only this second cytotoxic constituent is observed when the cells of the Caco-2 cell line are treated after confluence (stopping of the proliferation).

Point of comparison: `NCCCNCCCCNCc1ccc2cccc(O)c2n1` [HQ1-43], “% LDH/control 10 μM” value 93%. Against it:
- NCCCNCCCNCc1ccc2cccc(O)c2n1 [HQ1-33] — higher, 118%
- NCCCCNCCCNCc1ccc2cccc(O)c2n1 [HQ1-34] — higher, 100%

Same assay, conditions: Caco-2 J4, 100 μM

Point of comparison: `NCCCCNCCCNCc1ccc2cccc(O)c2n1` [HQ1-34], “% LDH/control 100 μM” value 229%. Against it:
- NCCCNCCCNCc1ccc2cccc(O)c2n1 [HQ1-33] — higher, 261%
- NCCCNCCCCNCc1ccc2cccc(O)c2n1 [HQ1-43] — higher, 240%

System: wild cell line (CHO) of hamster ovarian cells
Assay: Anti-proliferative effect on CHO cells, counting of cell nuclei (Hoechst 33342)
Format: cell-based
Details: 72 h treatment, no exogenous iron; read-out: IC50 CHO
Procedure: The in vitro efficacy of different Quilamines was tested on a wild cell line (CHO) of hamster ovarian cells having PTS and a mutant cell line CHO-MG without PTS. The two cell types CHO and CHO-MG were treated, 24 hours after being seeded in 96-well microplates, by concentrations of different Quilamines ranging from 0.1 to 400 micromoles per liter. The cytostatic (anti-proliferative) effects and cytotoxic effects of Quilamine after 72 hours' treatment of the cells were assessed respectively by counting cell nuclei after DNA marking by the Hoechst 33342 fluorescent intercalant dye and by analysis of membrane damage detected by the dosing of the lactate dehydrogenase activity (LHD) in the supernatants.
The IC50 inhibitor concentration corresponding to the concentration in Quilamines enables the inhibition at 50% of the cell proliferation was deduced from the dose-effect curves of numeration of the nuclei of the living cells on the CHO and CHO-MG cell lines. […] The lower the value of IC50, the greater the efficiency of the anti-proliferative effect of the tested chelators.
A comparison was made of the cytostatic or anti-proliferative action and the cytotoxic action for 72 h of treatment by Quilamine HQ1-44 and 8-hydroxyquinoline and ICL670, on the CHO cell lines in the presence and without the presence of exogenous iron, in the form of Fe(III) citrate in a concentration of 20 micromoles per liter. The results obtained are shown in FIG. 4, FIG. 4A relating to the results on cell viability and FIG. 4B relating to the results on cell toxicity.

In the case of `NCCCNCCCNCc1ccc2cccc(O)c2n1` [HQ1-33], the IC50 is reported as 5.7 µM.
